For 15 compounds, GI50 and TGI results are on record in PubChem BioAssay (NCI).

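1) Cells in 96-well plates. 2) Compound, 48 h, 5 concentrations. 3) Linear interpolation between surrounding doses. 4) Unreached endpoint = highest concentration. Here, GI50 denotes the concentration required for 50% inhibition of growth. TGI denotes the concentration required for complete inhibition of growth.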

Test systems include 786-0 renal; COLO 205 colon; HOP-62 NSCLC; HOP-92 NSCLC; NCI-H460 lung; RPMI-8226 leukemia; SF-268 CNS; SK-MEL-28 melanoma; SK-OV-3 ovarian; UO-31 renal.
Test in all cases: NCI tumour cell line growth inhibition, 48 h

As to `COc1ccc(-c2nn(-c3ccc(NC(=O)c4ccc(Cl)c(Cl)c4)cc3)cc2-c2ccncc2)cc1Cl`, the GI50 with 786-0 renal was 1.01 µM; with COLO 205 colon, 1.45 µM; in the experiment on HOP-62 NSCLC, 1.62 µM; in the experiment with HOP-92 NSCLC it was 7.65 µM; in the experiment with NCI-H460 lung it was 2.02 µM; with RPMI-8226 leukemia, 0.831 µM. Besides, the GI50 was 4.25 µM with SF-268 CNS, greater than 50 µM in the experiment with SK-MEL-28 melanoma, 4.29 µM in the experiment on SK-OV-3 ovarian and 2.07 µM in the experiment on UO-31 renal. Further, the TGI in the experiment on 786-0 renal is 2.53 µM; with COLO 205 colon it was 3.8 µM; with HOP-62 NSCLC, 17 µM; with HOP-92 NSCLC, greater than 50 µM; with NCI-H460 lung it was greater than 50 µM; in the experiment with RPMI-8226 leukemia it was greater than 11.6 µM. Moreover, the TGI in the experiment on SF-268 CNS, with SK-MEL-28 melanoma, in the experiment on SK-OV-3 ovarian and in the experiment with UO-31 renal was greater than 50 µM in each case.
As to `COc1cc2c3c(n(C)c(=O)c2cc1OC)-c1cc2c(cc1/C3=C\CN)OCO2`, the GI50 in the experiment on 786-0 renal is 0.314 µM; in the experiment with COLO 205 colon, 0.156 µM; in the experiment with HOP-62 NSCLC, 0.189 µM; with HOP-92 NSCLC, 2.09 µM; in the experiment with NCI-H460 lung, 0.0879 µM; in the experiment with RPMI-8226 leukemia it was 0.307 µM. Moreover, the GI50 was 0.433 µM in the experiment on SF-268 CNS, 7.38 µM in the experiment on SK-MEL-28 melanoma, 0.412 µM in the experiment with SK-OV-3 ovarian and 0.621 µM in the experiment with UO-31 renal. Further, the TGI is 17.3 µM in the experiment with 786-0 renal; 17 µM with HOP-62 NSCLC; greater than 77.1 µM in the experiment with HOP-92 NSCLC; greater than 24.1 µM in the experiment with NCI-H460 lung; 4.9 µM with RPMI-8226 leukemia; greater than 79.2 µM in the experiment on SF-268 CNS. The TGI in the experiment on SK-MEL-28 melanoma is greater than 48.5 µM; with UO-31 renal it was greater than 41.1 µM.
Turning to `C[C@@H]1CC[C@@H]2[C@@H]1[C@H](OC(=O)/C=C/c1ccccc1)[C@]1(C3CCCCC3)C[C@@H](OC(=O)CO)[C@@]2(C)O1`, the GI50 in the experiment on 786-0 renal was 1.17 µM; with COLO 205 colon, 3.12 µM; in the experiment on HOP-62 NSCLC, 3.3 µM; with HOP-92 NSCLC, 2.68 µM; in the experiment on NCI-H460 lung, 2.62 µM; in the experiment on RPMI-8226 leukemia it was 2.99 µM. Besides, the GI50 in the experiment on SF-268 CNS was 1.48 µM; in the experiment with SK-MEL-28 melanoma it was 3.59 µM; with SK-OV-3 ovarian, 6.71 µM; with UO-31 renal it was 0.015 µM. In addition, the TGI in the experiment with 786-0 renal worked out at 3.07 µM; in the experiment with COLO 205 colon it was 11.1 µM; with HOP-62 NSCLC it was 14 µM; in the experiment with HOP-92 NSCLC, 9.17 µM; with NCI-H460 lung, 6.55 µM; in the experiment with RPMI-8226 leukemia, 7.49 µM. For the same compound, the TGI is 9.86 µM in the experiment with SF-268 CNS, 15.1 µM in the experiment with SK-MEL-28 melanoma, 20.2 µM in the experiment with SK-OV-3 ovarian and 0.03 µM in the experiment on UO-31 renal.
As for `COC1(OC)C(N(C)C)=C(Cl)C(=O)/C1=C/C=O`, the TGI in the experiment on 786-0 renal, in the experiment on COLO 205 colon, in the experiment on HOP-62 NSCLC, in the experiment on HOP-92 NSCLC, in the experiment on NCI-H460 lung and in the experiment on RPMI-8226 leukemia was greater than 100 µM each time. The TGI in the experiment with SF-268 CNS, in the experiment on SK-MEL-28 melanoma, in the experiment with SK-OV-3 ovarian and in the experiment with UO-31 renal was greater than 100 µM in each case.
In the case of `CCOc1ccccc1NC(=O)C(=O)CC(=O)c1sc(Nc2nnc(-c3ccc(Cl)c(Cl)c3)o2)nc1C`, the TGI with 786-0 renal, with COLO 205 colon, in the experiment on HOP-62 NSCLC, in the experiment with HOP-92 NSCLC, with NCI-H460 lung and in the experiment with RPMI-8226 leukemia was greater than 100 µM throughout. In addition, the TGI in the experiment on SF-268 CNS, in the experiment on SK-MEL-28 melanoma, in the experiment on SK-OV-3 ovarian and with UO-31 renal was greater than 100 µM throughout.
With `CCC(C)COC(=O)c1ccc(N=Cc2ccc(C=Nc3ccc(C(=O)OCC(C)CC)cc3)cc2)cc1` (stereo not drawn), the TGI in the experiment on 786-0 renal, in the experiment on COLO 205 colon, with HOP-62 NSCLC, in the experiment with HOP-92 NSCLC, in the experiment with NCI-H460 lung and in the experiment with RPMI-8226 leukemia was greater than 100 µM each time. Further, the TGI in the experiment with SF-268 CNS, in the experiment on SK-MEL-28 melanoma, in the experiment with SK-OV-3 ovarian and with UO-31 renal was greater than 100 µM throughout.
As to `CCOc1ccc(NC(=O)C(=O)CC(=O)c2c(C)n([O-])c3ccccc3[n+]2=O)cc1`, the TGI in the experiment on 786-0 renal, in the experiment on COLO 205 colon, in the experiment with HOP-62 NSCLC, in the experiment with HOP-92 NSCLC, with NCI-H460 lung and in the experiment with RPMI-8226 leukemia was greater than 100 µM in each case. The TGI in the experiment with SF-268 CNS, in the experiment with SK-MEL-28 melanoma, in the experiment with SK-OV-3 ovarian and with UO-31 renal was greater than 100 µM each time.
Regarding `[Cl][Hg][c]1cc[c]([Hg][Cl])o1`, the GI50 was 4.5 µM in the experiment with 786-0 renal; 1.65 µM in the experiment on COLO 205 colon; 13.5 µM with HOP-62 NSCLC; 1.77 µM with HOP-92 NSCLC; 10 µM in the experiment with NCI-H460 lung; 1.66 µM in the experiment with RPMI-8226 leukemia. For the same compound, the GI50 was 2.77 µM in the experiment on SF-268 CNS, 5.6 µM with SK-MEL-28 melanoma, 15 µM with SK-OV-3 ovarian and 1.98 µM in the experiment with UO-31 renal. For the same compound, the TGI was 15.1 µM with 786-0 renal; 3.26 µM in the experiment with COLO 205 colon; 28.4 µM with HOP-62 NSCLC; 3.52 µM with HOP-92 NSCLC; 34.1 µM in the experiment with NCI-H460 lung; 7.34 µM with RPMI-8226 leukemia. In addition, the TGI in the experiment with SF-268 CNS worked out at 12.3 µM; in the experiment on SK-MEL-28 melanoma it was 19.9 µM; in the experiment on SK-OV-3 ovarian, 77.6 µM; in the experiment on UO-31 renal, 3.96 µM.
For the compound `CC1c2c(Cl)nc3ccccc3c2Oc2c1c(Cl)nc1ccccc21`, the TGI in the experiment with 786-0 renal, with COLO 205 colon, in the experiment with HOP-62 NSCLC, with HOP-92 NSCLC, in the experiment on NCI-H460 lung and in the experiment with RPMI-8226 leukemia was greater than 100 µM in each case. Moreover, the TGI with SF-268 CNS, in the experiment on SK-MEL-28 melanoma, in the experiment on SK-OV-3 ovarian and with UO-31 renal was greater than 100 µM in each case.
As to `Cc1ncc(C(=O)Nc2ccc(CN3CCN(C)CC3)c(C(F)(F)F)c2)cc1C#Cc1cnc(N)c2ccncc12`, the GI50 with 786-0 renal is 1.35 µM; in the experiment on COLO 205 colon it was 0.687 µM; in the experiment on HOP-62 NSCLC, 1.38 µM; with HOP-92 NSCLC, 0.615 µM; in the experiment on NCI-H460 lung, 1.38 µM; in the experiment with RPMI-8226 leukemia, 2.18 µM. Also, the GI50 in the experiment with SF-268 CNS was 0.702 µM; in the experiment with SK-MEL-28 melanoma it was 1.27 µM; in the experiment with SK-OV-3 ovarian, 2.79 µM; with UO-31 renal it was 0.457 µM. In addition, the TGI was determined as 3.3 µM with 786-0 renal; 2.04 µM in the experiment with COLO 205 colon; 3.18 µM in the experiment on HOP-62 NSCLC; 3.62 µM in the experiment on HOP-92 NSCLC; 3.02 µM in the experiment with NCI-H460 lung; 5.46 µM in the experiment with RPMI-8226 leukemia. The TGI came to 2.99 µM in the experiment with SF-268 CNS, 2.82 µM in the experiment with SK-MEL-28 melanoma, 7.13 µM with SK-OV-3 ovarian and 2.27 µM in the experiment on UO-31 renal.
In the case of `CC1CN(C(=O)CN2CCC(CCCCN(C)C)CC2)c2ccccc2NC1=O` (stereo not drawn), the TGI in the experiment on 786-0 renal, in the experiment with COLO 205 colon, in the experiment with HOP-62 NSCLC, with HOP-92 NSCLC, with NCI-H460 lung and in the experiment with RPMI-8226 leukemia was greater than 100 µM throughout. The TGI in the experiment with SF-268 CNS, with SK-MEL-28 melanoma, in the experiment with SK-OV-3 ovarian and in the experiment on UO-31 renal was greater than 100 µM each time.
Take `O=C(Nc1nc(=S)c2c(ncn2CCOC(=O)c2ccccc2)[nH]1)c1ccccc1`: the TGI is greater than 100 µM in the experiment with 786-0 renal; greater than 100 µM in the experiment on COLO 205 colon; 79.6 µM with HOP-62 NSCLC; greater than 100 µM in the experiment with HOP-92 NSCLC; greater than 100 µM in the experiment on NCI-H460 lung; greater than 100 µM in the experiment on RPMI-8226 leukemia. The TGI was 39.3 µM with SF-268 CNS, greater than 100 µM with SK-MEL-28 melanoma, greater than 100 µM in the experiment on SK-OV-3 ovarian and greater than 100 µM with UO-31 renal.
On to `Cc1ccc(/C=C/C(=O)c2sc(-c3nc(C)c(C(=O)/C=C/c4ccc(C)cc4)s3)nc2C)cc1`, for which the TGI with 786-0 renal, with COLO 205 colon, with HOP-62 NSCLC, in the experiment on HOP-92 NSCLC, in the experiment on NCI-H460 lung and in the experiment with RPMI-8226 leukemia was greater than 100 µM throughout. In addition, the TGI in the experiment on SF-268 CNS, with SK-MEL-28 melanoma, in the experiment on SK-OV-3 ovarian and in the experiment with UO-31 renal was greater than 100 µM in each case.
On to `Oc1cccnc1[Se]`, for which the TGI is 31.7 µM in the experiment with 786-0 renal; 35 µM with COLO 205 colon; 64.7 µM in the experiment with HOP-62 NSCLC; greater than 100 µM with HOP-92 NSCLC; greater than 100 µM in the experiment on NCI-H460 lung; greater than 100 µM in the experiment with RPMI-8226 leukemia. The TGI with SF-268 CNS, in the experiment on SK-MEL-28 melanoma, with SK-OV-3 ovarian and in the experiment with UO-31 renal was greater than 100 µM in each case.
Turning to `O=C(c1ccccc1)c1cc2ccccc2o1`, the GI50 was greater than 100 µM with 786-0 renal; greater than 100 µM with COLO 205 colon; greater than 100 µM with HOP-62 NSCLC; 26.7 µM with HOP-92 NSCLC; greater than 100 µM with NCI-H460 lung; 91.8 µM with RPMI-8226 leukemia. For the same compound, the GI50 was 70.3 µM with SF-268 CNS, greater than 100 µM with SK-MEL-28 melanoma, greater than 100 µM with SK-OV-3 ovarian and 21.3 µM in the experiment with UO-31 renal. The TGI with 786-0 renal, with COLO 205 colon, in the experiment on HOP-62 NSCLC, with HOP-92 NSCLC, with NCI-H460 lung and in the experiment on RPMI-8226 leukemia was greater than 100 µM each time. For the same compound, the TGI with SF-268 CNS, in the experiment on SK-MEL-28 melanoma, in the experiment with SK-OV-3 ovarian and with UO-31 renal was greater than 100 µM throughout.
